Measured values taken from US6949558B2, “Enhancement of taxane-based chemotherapy by a CDK1 antagonist” (Yale University, priority 2001, dated 2005).

What was measured:
[1] = test system: p34^cdc2 kinase activity (MPM-2 epitope) in MCF-7 cells; experiment: MPM-2 mitotic phosphoepitope expression (p34^cdc2 kinase activity) in MCF-7 cells; format: cell-based, human
Protocol: MPM-2 Mitotic Phosphoepitope Expression: For detection of mitotic phosphoproteins (D. D. Vandre et al. (1989) J. Cell Sci. 94: 245-58), MCF-7 cells (1-2×10^5 cells/60 mm dish) were treated with taxol (2 μM), adriamycin (100 nM), 50 or 300 J/m^2 UVB irradiation and cultured for 0, 8, 16, 24 or 36 h at 37° C. Cells were fixed in 70% ethanol, labeled with MPM-2 antibody (6 μg/ml) followed by addition of goat anti-mouse FITC (Boehringer Mannheim) for 1 h at 22° C. in the presence of 5 μg/ml propidium iodide (PI) containing 50 μg/ml RNase A. Samples were analyzed on a FACScan (Becton Dickinson, Mountain View, Calif.), using CellQuest software.
MPM-2 Mitotic Phosphoepitope Expression: For detection of mitotic phosphoproteins (D. D. Vandre et al. (1989) J. Cell Sci. 94: 245-258), MCF-7 cells (1-2×10^5 cells/60 mm dish) were treated with taxol (0.2 μM), or vincristine (100 nM) for increasing time intervals (8-36 h) at 37° C. Cells were fixed in 70% ethanol, labeled with MPM-2 antibody (6 μg/ml; Upstate Biotechnology, Lake Placid, N.Y.) followed by addition of goat anti-mouse FITC (Boehringer Mannheim) for 1 h at 22° C. in the presence of 5 μg/ml propidium iodide containing 50 μg/ml RNAse A. Samples were analyzed on a FACScan (Becton Dickinson, Mountain View, Calif.), using CellQuest software. Data are expressed as %MPM-2 positive cells in the entire population.

[2] = test system: MCF-7 tumors; experiment: Breast cancer xenograft model (Example 8); format: in vivo, CB17 SCID/beige mice; conditions: taxol alone 2.5 or 5 mg/kg, Purvalanol A alone 20 mg/kg, i.p.
Protocol: Breast Cancer Xenograft Model: All experiments involving animals were approved by the institutional animal cure and use committee. Six- to eight-week old female CB17 SCID/beige mice (Taconic Farms, Germantown, N.Y.) were injected s.c. into the flanks with 2.5×10^6 exponentially growing MCF-7 cells in 250 μl of sterile PBS, pH 7.4. […] Animals were injected i.p. with taxol alone (2.5 or 5 mg/kg), Purvalanol A alone (20 mg/kg) or the sequential combination of taxol-Purvalanol A for two consecutive days each divided by a day with no treatment. For single agent treatment, vehicle was given in place of taxol or Purvalanol A with the same schedule. Each complete cycle was separated by 2 d without treatment. Tumor volume was measured in the three dimensions with a caliper. Animals with tumor burden >3000 mm^3 were sacrificed (Survival).
Statistical Analysis: All in vitro experiments were repeated at least three times. […] The survival curves were compared using the log-rank test. This test generates a P value testing the null hypothesis that the survival curves are identical in the overall populations.

[3] = test system: caspase-9; experiment: Caspase-9 processing by Western blotting in HeLa cells; conditions: taxol 0.2 μM, Purvalanol A 20 μM or sequential combination, 16 h
[4] = test system: survivin expression in PC3 cells; experiment: Survivin expression by Western blotting in PC3 cells; format: cell-based; conditions: taxol

With `CC(=O)O[C@H]1C(=O)[C@@]2(C)[C@H]([C@H](OC(=O)c3ccccc3)[C@]3(O)C[C@H](OC(=O)[C@H](O)[C@@H](NC(=O)c4ccccc4)c4ccccc4)C(C)=C1C3(C)C)[C@]1(OC(C)=O)CO[C@@H]1C[C@@H]2O` [taxol, Paclitaxel] the MPM-2 expression ([1]; taxol 2 μM (Example 7)) was “elevated MPM-2 expression”, the “p34^cdc2 kinase activity (MPM-2 phosphoepitope expression)” value ([1]; taxol 0.2-2 μM (Example 8)) was “elevated p34^cdc2 kinase activity” and the “kinetics of tumor growth” value [2] was “did not affect the kinetics of tumor growth”. For the same compound, the caspase-9 processing [3] was “did not result in significant caspase-9 cleavage” and the survivin expression [4] was “increased expression of survivin”.
